Measured values reported in patent US8129389B2, “Substituted oxindole derivatives, medicaments containing the latter and use thereof” (Abbott GmbH & Co. KG, priority 2005, dated 2012).
Read-outs that look alike come from different tables or passages of the source.

Molecular target: T1, human V1b receptors (Homo sapiens, UniProt P47901)
T1 construct: expressed in transfected cells
T1 sequence (P47901 1-424): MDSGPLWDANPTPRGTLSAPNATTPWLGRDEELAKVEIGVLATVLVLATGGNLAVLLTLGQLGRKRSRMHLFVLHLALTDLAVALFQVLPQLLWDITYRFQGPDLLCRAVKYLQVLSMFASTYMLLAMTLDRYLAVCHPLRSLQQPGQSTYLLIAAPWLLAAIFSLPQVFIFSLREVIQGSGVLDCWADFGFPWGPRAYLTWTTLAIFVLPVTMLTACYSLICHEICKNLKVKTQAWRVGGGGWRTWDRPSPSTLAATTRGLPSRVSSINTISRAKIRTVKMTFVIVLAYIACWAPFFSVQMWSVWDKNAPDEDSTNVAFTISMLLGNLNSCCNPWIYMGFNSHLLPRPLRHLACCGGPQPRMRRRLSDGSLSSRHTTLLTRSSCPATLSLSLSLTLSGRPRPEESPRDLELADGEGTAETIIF
Assay: Vasopressin V1b receptor binding assay
Procedure: Vasopressin V1b Receptor Binding Assay:
These DMSO solutions were diluted 1:10 with assay buffer. The substance concentration was further diluted 1:10 in the assay mixture.
The nonspecific binding was determined with 10^−6 M AVP. Determinations in triplicate were carried out.
The affinities for the human vasopressin V1b receptor were measured, and affinity constants determined, in the above assay for the inventive examples.
The affinities of the compounds (I) of the invention for the human vasopressin V1b receptor were measured in accordance with the above assays, and the affinity constants (Ki) were determined. Table 1 below details the V1b receptor affinity of selected compounds (+++ means <10 nM and ++ means 10-100 nM).

[1] = Table 1, human vasopressin V1b receptor affinity, read-out: V1b Ki
[2] = membranes from CHO-K1 cells, 3H-AVP displacement, read-out: measured Ki values, affinities for the vasopressin V1b receptor

Compound	Ki [1]	Ki [2]
CCOc1ccccc1C1(OC(=O)N2CCN(c3ccncc3)CC2)C(=O)N(S(=O)(=O)c2ccccc2OC)c2ccc(C#N)cc21 (centres unmarked) [Example 2, 5-Cyano-1-(2-methoxybenzenesulfonyl)-3-(2-ethoxyphenyl)-2-oxo-2,3-dihydro-1H-indol-3-yl 4-(pyridin-4-yl)piperazine-1-carboxylate]	0.01 to 0.1 µM	< 0.1 µM
CCOc1ccccc1C1(OC(=O)N2CCN(c3ccncc3)CC2)C(=O)N(S(=O)(=O)c2ccc(OC)cc2OC)c2ccc(C#N)cc21 (centres unmarked) [Example 3, 5-Cyano-1-(2,4-dimethoxybenzenesulfonyl)-3-(2-ethoxyphenyl)-2-oxo-2,3-dihydro-1H-indol-3-yl 4-(pyridin-4-yl)piperazine-1-carboxylate]	< 0.01 µM	< 0.1 µM
CCOc1ccccc1C1(OC(=O)N2CCN(c3nccs3)CC2)C(=O)N(S(=O)(=O)c2ccccc2OC)c2ccc(C#N)cc21 (centres unmarked) [Example 4, 5-Cyano-1-(2-methoxybenzenesulfonyl)-3-(2-ethoxyphenyl)-2-oxo-2,3-dihydro-1H-indol-3-yl 4-(thiazol-2-yl)piperazine-1-carboxylate]	< 0.01 µM	< 0.1 µM
CCOc1ccccc1C1(OC(=O)N2CCN(c3ccncc3)CC2)C(=O)N(S(=O)(=O)c2ccc(F)cc2F)c2ccc(C#N)cc21 (centres unmarked) [Example 7, 5-Cyano-1-(2,4-difluorobenzenesulfonyl)-3-(2-ethoxyphenyl)-2-oxo-2,3-dihydro-1H-indol-3-yl 4-(pyridin-4-yl)piperazine-1-carboxylate]	0.01 to 0.1 µM	< 0.1 µM
CCOc1ccccc1C1(OC(=O)N2CCN(c3ccncc3)CC2)C(=O)N(S(=O)(=O)c2ccccc2F)c2ccc(C#N)cc21 (centres unmarked) [Example 8, 5-Cyano-1-(2-fluorobenzenesulfonyl)-3-(2-ethoxyphenyl)-2-oxo-2,3-dihydro-1H-indol-3-yl 4-(pyridin-4-yl)piperazine-1-carboxylate]	0.01 to 0.1 µM	< 0.1 µM
CCOc1ccccc1C1(OC(=O)N2CCN(c3ccncc3)CC2)C(=O)N(S(=O)(=O)c2ccccc2)c2ccc(C#N)cc21 (centres unmarked) [Example 9, 5-Cyano-1-benzenesulfonyl-3-(2-ethoxyphenyl)-2-oxo-2,3-dihydro-1H-indol-3-yl 4-(pyridin-4-yl)-piperazine-1-carboxylate]	0.01 to 0.1 µM	< 0.1 µM
CCOc1ccccc1C1(NC(=O)N2CCN(c3ccncc3)CC2)C(=O)N(S(=O)(=O)c2ccccc2)c2ccc(C#N)cc21 (centres unmarked) [Example 11, 4-(Pyridin-4-yl)piperazine-1-[1-benzenesulfonyl-5-cyano-2-oxo-3-(2-ethoxyphenyl)-2,3-dihydro-1H-indol-3-yl]carboxamide]	0.01 to 0.1 µM	< 0.1 µM
CCOc1ccccc1C1(NC(=O)N2CCN(c3ccncc3)CC2)C(=O)N(S(=O)(=O)c2ccc(C#N)cc2)c2ccc(C#N)cc21 (centres unmarked) [Example 14, 4-(Pyridin-4-yl)piperazine-1-[1-(4-cyanobenzenesulfonyl)-5-cyano-2-oxo-3-(2-ethoxyphenyl)-2,3-dihydro-1H-indol-3-yl]carboxamide]	< 0.01 µM	< 0.1 µM
CCOc1ccccc1C1(NC(=O)N2CCN(c3ccncc3)CC2)C(=O)N(S(=O)(=O)c2ccc([N+](=O)[O-])cc2)c2ccc(C#N)cc21 (centres unmarked) [Example 17, 4-(Pyridin-4-yl)piperazine-1-[1-(4-nitrobenzenesulfonyl)-5-cyano-2-oxo-3-(2-ethoxyphenyl)-2,3-dihydro-1H-indol-3-yl]carboxamide]	< 0.01 µM	< 0.1 µM
CCOc1ccccc1C1(OC(=O)N2CCN(c3ccncc3)CC2)C(=O)N(S(=O)(=O)c2ccc(C#N)cc2)c2ccc(C#N)cc21 (centres unmarked) [Example 18, 1-(4-Cyanobenzenesulfonyl)-5-cyano-2-oxo-3-(2-ethoxyphenyl)-2,3-dihydro-1H-indol-3-yl 4-(pyridin-4-yl)piperazine-1-carboxylate]	0.01 to 0.1 µM	< 0.1 µM
CCOc1ccccc1C1(OC(=O)N2CCN(c3ccncc3)CC2)C(=O)N(S(=O)(=O)c2ccc([N+](=O)[O-])cc2)c2ccc(C#N)cc21 (centres unmarked) [Example 19, 1-(4-Nitrobenzenesulfonyl)-5-cyano-2-oxo-3-(2-ethoxyphenyl)-2,3-dihydro-1H-indol-3-yl 4-(pyridin-4-yl)piperazine-1-carboxylate]	< 0.01 µM	< 0.1 µM
CCOc1ccccc1C1(OC(=O)N2CCN(c3ccncc3)CC2)C(=O)N(S(=O)(=O)c2ccc(F)cc2)c2ccc(C#N)cc21 (centres unmarked) [Example 21, 1-(4-Fluorobenzenesulfonyl)-5-cyano-2-oxo-3-(2-ethoxyphenyl)-2,3-dihydro-1H-indol-3-yl 4-(pyridin-4-yl)piperazine-1-carboxylate]	0.01 to 0.1 µM	< 0.1 µM
CCOc1ccccc1C1(OC(=O)N2CCN(c3ccccn3)CC2)C(=O)N(S(=O)(=O)c2ccc(OC)cc2OC)c2ccc(C#N)cc21 (centres unmarked) [Example 25, 1-(2,4-Dimethoxybenzenesulfonyl)-5-cyano-2-oxo-3-(2-ethoxyphenyl)-2,3-dihydro-1H-indol-3-yl 4-(pyridin-2-yl)piperazine-1-carboxylate]	0.01 to 0.1 µM	< 0.1 µM

Second part, the compound after the results:

Ki [1]	Ki [2]	Compound
< 0.01 µM	< 0.1 µM	CCOc1ccccc1C1(NC(=O)N2CCN(c3ccncc3)CC2)C(=O)N(S(=O)(=O)c2ccccc2OC)c2ccc(C#N)cc21 (centres unmarked) [Example 10, 4-(Pyridin-4-yl)piperazine-1-[1-(2-methoxybenzenesulfonyl)-5-cyano-2-oxo-3-(2-ethoxyphenyl)-2,3-dihydro-1H-indol-3-yl]carboxamide]
< 0.01 µM	< 0.1 µM	CCOc1ccccc1C1(NC(=O)N2CCN(c3ccncc3)CC2)C(=O)N(S(=O)(=O)c2ccccc2F)c2ccc(C#N)cc21 (centres unmarked) [Example 12, 4-(Pyridin-4-yl)piperazine-1-[1-(2-fluorobenzenesulfonyl)-5-cyano-2-oxo-3-(2-ethoxyphenyl)-2,3-dihydro-1H-indol-3-yl]carboxamide]
0.01 to 0.1 µM	< 0.1 µM	CCOc1ccccc1C1(NC(=O)N2CCN(c3ccncc3)CC2)C(=O)N(S(=O)(=O)c2ccc(F)cc2F)c2ccc(C#N)cc21 (centres unmarked) [Example 13, 4-(Pyridin-4-yl)piperazine-1-[1-(2,4-difluorobenzenesulfonyl)-5-cyano-2-oxo-3-(2-ethoxyphenyl)-2,3-dihydro-1H-indol-3-yl]carboxamide]
< 0.01 µM	< 0.1 µM	CCOc1ccccc1C1(NC(=O)N2CCN(c3ccncc3)CC2)C(=O)N(S(=O)(=O)c2ccc(C)cc2OC)c2ccc(C#N)cc21 (centres unmarked) [Example 15, 4-(Pyridin-4-yl)piperazine-1-[1-(2-methoxy-4-methylbenzenesulfonyl)-5-cyano-2-oxo-3-(2-ethoxyphenyl)-2,3-dihydro-1H-indol-3-yl]carboxamide]
< 0.01 µM	< 0.1 µM	CCOc1ccccc1C1(NC(=O)N2CCN(c3ccncc3)CC2)C(=O)N(S(=O)(=O)c2ccc(OC)cc2OC)c2ccc(C#N)cc21 (centres unmarked) [Example 16, 4-(Pyridin-4-yl)piperazine-1-[1-(2,4-dimethoxybenzenesulfonyl)-5-cyano-2-oxo-3-(2-ethoxyphenyl)-2,3-dihydro-1H-indol-3-yl]carboxamide]
< 0.01 µM	< 0.1 µM	CCOc1ccccc1C1(OC(=O)N2CCN(c3ccncc3)CC2)C(=O)N(S(=O)(=O)c2ccc(C)cc2OC)c2ccc(C#N)cc21 (centres unmarked) [Example 20]
